Reference: patent US6313110A, “Substituted 2H-1,3-diazapin-2-one useful as an HIV protease inhibitor” (priority 2000, dated 2001)
Like-named read-outs stand apart in the source and are kept apart here.

Test system: HIV-1 (RF) in MT-2 cells
Assay: HIV RNA assay: antiviral potency in HIV-1 (RF) infected MT-2 cells (reduction of HIV RNA level)
Assay type: cell-based
Description: Plasmid pDAB 72 containing both gag and pol sequences of BH10 (bp 113-1816) cloned into PTZ 19R was prepared according to Erickson-Viitanen et al. AIDS Research and Human Retroviruses 1989, 5, 577. The plasmid was linearized with Bam HI prior to the generation of in vitro RNA transcripts using the Riboprobe Gemini system II kit (Promega) with T7 RNA polymerase. Synthesized RNA was purified by treatment with RNase free DNAse (Promega), phenol-chloroform extraction, and ethanol precipitation. RNA transcripts were dissolved in water, and stored at -70° C. The concentration of RNA was determined from the A260.
Biotinylated capture probes were purified by HPLC after synthesis on an Applied Biosystems (Foster City, Calif.) DNA synthesizer by addition of biotin to the 5' terminal end of the oligonucleotide, using the biotin-phosphoramidite reagent of Cocuzza, Tet. Lett. 1989, 30, 6287. […]
MT-2 and MT-4 cells were maintained in RPMI 1640 supplemented with 5% fetal calf serum (FCS) for MT-2 cells or 10% FCS for MT-4 cells, 2 mM L-glutamine and 50 μg/mL gentamycin, all from Gibco. […] Infectious titers of HIV-1(RF) stocks were 1-3×10^7 PFU (plaque forming units)/mL as measured by plaque assay on MT-2 cells (see below). […]

Row | SMILES | IC90 (Human immunodeficiency virus 1, MT2, 72 h, 3 days culture at 37° C., read-out: IC90 (concentration of compound required to reduce the HIV RNA level by 90%)) [nM] | IC90 (Human immunodeficiency virus 1, MT2, ddC reference, dilutions of virus selected to give this IC90, read-out: IC90 (concentration of compound required to reduce the HIV RNA level by 90%)) [µg/mL]
1 | Nc1cccc(CN2C(=O)N(Cc3ccc4[nH]ncc4c3)[C@H](Cc3ccccc3)[C@H](O)[C@@H](O)[C@H]2Cc2ccccc2)c1 [Example 1, (4R,5S,6S,7R)-hexahydro-1-[(indazol-5-yl)methyl]-5,6-dihydroxy-4,7-bis[phenylmethyl]-3-(3-aminophenyl)methyl-2H-1,3-diazapin-2-one] | < 50 | –
2 | Nc1ccn([C@H]2CC[C@@H](CO)O2)c(=O)n1 [ddC, dideoxycytidine] | – | 0.2
